In general, MIC refers to the least concentration at which growth counts as inhibited.

Experiment [1] deals with planktonic S. aureus MRSA (SAP0017). Kind of experiment: MIC determination, broth microdilution. Format: cell-based, Staphylococcus aureus. Particulars: for MIC: Staphylococcus aureus, MRSA; for MIC, MHB: Mueller Hinton Broth; for MIC, MHB / MIC, TSB with 1% Glucose: broth microdilution, ~5 × 10^5 CFU/ml, 37 °C overnight, visual read, mean of three biological replicates; for MIC, TSB with 1% Glucose: Tryptic Soy Broth with 1% glucose. The method, then: The MIC of the synthesized peptides was determined in both Mueller Hinton Broth (MHB) and Tryptic Soy Broth (TSB) supplemented with 1% glucose, using the broth microdilution method[21] with slight modifications. Briefly, 10 μl of a 10× concentrated peptide stock solution, vancomycin antibiotic, or vehicle control (water) was placed in the bottom of a well in a 96-well polypropylene round bottom plate (Corning Inc. Corning, NY). A bacterial suspension of S. aureus MRSA (SAP0017, clinical isolate kindly provided by Dr. Tony Chow, Vancouver General Hospital) was prepared from an overnight culture to a final cell density of ~5 × 10^5 CFU/ml and 90 μl of this was added to each well.
For orientation: In broth dilution the organism is exposed to a series of concentrations in liquid medium.

The test system of experiment [2] is S. aureus (MRSA SAP0017) biofilms. Kind of experiment: Static microtitre plate antibiofilm screen (crystal violet). It counts as cell-based, Staphylococcus aureus. Particulars: SPOT-synthesized, highest peptide concentration evaluated, compared to untreated controls; listed from most to least active. The method, then: The SPOT-synthesized peptides were evaluated for their antibiofilm activity in vitro as described previously. Briefly, 5 μl of SPOT-peptide stock solution or a corresponding serial dilution was placed in a 96-well polypropylene round bottom plate (Corning Inc. Corning, NY) and 95 μl of a 1/100 dilution of an overnight culture of MRSA SAP0017 in TSB supplemented with 1% glucose was added to each well. The plates were incubated overnight at 37 °C to allow for bacterial growth and biofilm maturation. After 24 hours, the media containing planktonic bacteria was rinsed from each well with distilled water and the remaining biomass was stained with 0.1% crystal violet. The unbound dye was rinsed away and the biofilm bound dye was suspended in 70% ethanol and the absorbance at 595 nm was recorded on a plate reader. Percent biofilm inhibition was calculated by comparison to the amount of crystal violet stain in the untreated controls (defined as 100%) and the sterility control wells (defined as 0%). Results from three separate biological replicates were averaged and outliers were identified using the modified Thompson Tau test and removed from the analysis. The antibiofilm activity of all SPOT-derived peptides was assessed at multiple concentrations (up to five 2-fold dilutions from the stock solution) and the peptide concentration yielding the largest difference in percent inhibition of biofilm growth was used in subsequent analysis.

Experiment [3] relates to MCP-1 production from PBMCs. Kind of experiment: MCP-1 chemokine induction by peptide alone (ELISA). It counts as cell-based, human. Particulars: highest peptide concentration evaluated (40 µM), compared to 1018; six donors. On the procedure:
(§1) The cytotoxicity and immunomodulatory activity of both 1018 and 3002 was assessed as described previously. Briefly, peripheral blood mononuclear cells (PBMCs) were collected from healthy volunteers in accordance with the University of British Columbia ethics guidelines. PBMCs were plated in Costar 96-well flat bottom tissue culture treated plates at a final density of 1 × 10^6 cells/ml in RPMI media supplemented with 10% fetal bovine serum. Both peptides were tested at final concentrations of 40, 20 and 10 µM. Cytotoxicity was assessed using the Cytotoxicity Detection Kit (Roche Diagnostics, Basel, Switzerland) which measures lactate dehydrogenase activity released from damaged cells. Immune modulation was characterized by measuring the production of MCP-1 chemokine by induced by peptide alone as well as the suppression of interleukin (IL)-1β from PBMCs stimulated with 10 ng/ml Pseudomonas aeruginosa PAO1 lipopolysaccharide. Levels of MCP-1 and IL-1β were quantified by enzyme linked immunosorbent assays (ELISAs) using kits from eBioscience Inc. (San Diego, CA).
A general note: An ELISA detects its analyte on a solid surface through an enzyme-linked reagent.

Experiment [4] deals with MRSA SAP0017 biofilms grown in flow cells. Kind of experiment: Eradication of pre-formed biofilms in flow cells. The settings on record: BM2 media, SYTO-9/propidium iodide, confocal microscopy. Format: cell-based, Staphylococcus aureus. The method, then:
Bacterial biofilms were grown in BM2 media (62 mM potassium phosphate buffer, pH 7, 7 mM (NH4)2SO4, 2 mM MgSO4, 10 μM FeSO4 and 0.4% (wt/vol) glucose) for 48 hours followed by treatment with peptide (2 or 0.125 µM) for an additional 24 hours. The samples were stained with SYTO-9 and propidium iodide fluorescent dyes to image total and dead cells, respectively. Flow-cell images were acquired on an Olympus FluoView FV1000 confocal laser scanning microscope (Olympus Corp. Tokyo, Japan) and were analyzed with the Fiji software package.

In another experiment the test system is MRSA USA300 LAC. Kind of experiment: Murine cutaneous abscess model. Format: in vivo, CD-1 mice. The settings on record: 14 mg/kg. On the procedure:
The in vivo activity of the identified antibiofilm peptide 3002 and the parental compound 1018 was evaluated using a recently described murine abscess model of chronic MRSA infections. All animal experiments were performed in accordance with The Canadian Council on Animal Care (CCAC) guidelines and were approved by the University of British Columbia Animal Care Committee. Briefly, the fur on the backs of 6-week old female CD-1 mice (Charles River Laboratories, Wilmington, MA) was removed by shaving and subsequent treatment with depilatory cream. MRSA USA300 LAC was grown to an optical density at 600 nm of 1 in tryptic soy broth (TSB) at which point cells were washed twice with sterile PBS and then suspended in PBS to a final cell density of 5 × 10^7 CFU/50 μL. Mice were infected with 50 μL of bacteria subcutaneously on the right flank of the back and 1 hour later, given saline (for controls) or treated with 14 mg/kg peptide (1018 or 3002) via intra-abscess injection. Mice were monitored daily and their weight as well as abscess lesion sizes (measured using a caliper) were recorded every 24 hrs. Visible dermonecrosis or white lesions (filled with pus) were considered as part of the abscess lesion while swelling/inflammation was disregarded in the abscess size measurements. Three days post-infection, abscesses were excised and homogenized using a Bead Ruptor 4 tissue homogenizer (OMNI International, Kennesaw GA) for 5 minutes and serially plated for viable CFU quantification.

Experiment [5] deals with IL-1β production from LPS-stimulated PBMCs. Kind of experiment: Suppression of IL-1β from LPS-stimulated PBMCs (ELISA). The settings on record: PBMCs stimulated with 10 ng/ml P. aeruginosa PAO1 LPS; 10, 20, 40 µM peptide; six donors. Format: cell-based, human. On the procedure:
as §1

Experiment [6] relates to S. aureus (MRSA SAP0017) biofilms. Kind of experiment: Static microtitre plate antibiofilm screen (crystal violet). Format: cell-based, Staphylococcus aureus.

Converted amounts (≈) assume the structure as drawn. Where two headings read alike, the source gives them in different places. Ends that are not written are not given here.

In the case of `CN[C@H](CC(C)C)C(=O)N[C@H]1C(=O)N[C@@H](CC(N)=O)C(=O)N[C@H]2C(=O)N[C@H]3C(=O)N[C@H](C(=O)N[C@H](C(=O)O)c4cc(O)cc(O)c4-c4cc3ccc4O)[C@H](O)c3ccc(c(Cl)c3)Oc3cc2cc(c3O[C@@H]2O[C@H](CO)[C@@H](O)[C@H](O)[C@H]2O[C@H]2C[C@](C)(N)[C@H](O)[C@H](C)O2)Oc2ccc(cc2Cl)[C@H]1O` [Vancomycin, reference compound], the minimal inhibitory concentration (MIC) in experiment [1] (read-out: MIC, MHB) is 0.34 µM (≈ 0.493 µg/mL); in experiment [1] (read-out: MIC, TSB with 1% Glucose), 0.68 µM (≈ 0.986 µg/mL).

Take “GLIIKIIKKRLW [compound 26, Experimental Validation Set peptide]”: the “antibiofilm activity of SPOT-synthesized Experimental Validation Set peptides” value (from here on “antibiofilm activity”) in experiment [2] is “exhibited antibiofilm activity”.

Turning to “IKWVLRKIVQII [compound 37, Experimental Validation Set peptide]”, the “antibiofilm activity” value in experiment [2] is “exhibited antibiofilm activity”.

Turning to “ILVRWIRWRIQW-NH2 [compound 3002, QSAR–predicted antibiofilm peptide, >95% purity, C-terminally amidated]”, the “MCP-1 production induced by peptide alone” value in experiment [3] was “induced significantly more MCP-1 production”. Moreover, the “eradication of 2-day old pre-formed MRSA biofilms” value in experiment [4] (0.125 μM peptide for 24 h) was “effectively eradicated”. Also, the “eradication of 2-day old pre-formed MRSA biofilms” value in experiment [4] (2 µM peptide for 24 h) was “effectively eradicated”. For the same molecule, the “antibiofilm activity” value in experiment [2] is on record as “exhibited antibiofilm activity”. Also, in experiment [1], the “MIC, MHB” value worked out at 2 µM and the “MIC, TSB with 1% Glucose” value came to 4 µM. Moreover, the “reduction of abscess lesion size compared to untreated controls” value in the experiment on MRSA USA300 LAC (single intra-abscess injection 1 h after infection, 3 days) stood at 2.8 fold. Also, the “effect on bacterial load recovered from the abscesses” value in the experiment with MRSA USA300 LAC (single intra-abscess injection, CFU three days post-infection) was “neither peptide had any effect”. The “suppression of IL-1β production” value in experiment [5] is on record as “in a concentration dependent manner to similar levels as seen for peptide 1018”. Also, in experiment [6] (>95% pure peptide, static microtitre plate assay), the “concentration effectively inhibiting MRSA biofilm growth (as low as)” value amounted to 1 µM. Besides, the “enhancement in antibiofilm potency compared to 1018” value in experiment [6] (>95% pure peptides, static microtitre plate assay) stood at 8 fold.

As to “IQLKLIWVKRKW [compound 48, Experimental Validation Set peptide]”, the “antibiofilm activity” value in experiment [2] is given as “exhibited antibiofilm activity”.

As to “IQRWWKVWLKVI-NH2 [compound 3004, QSAR–predicted antibiofilm peptide, >95% purity, C-terminally amidated]”, the “antibiofilm activity” value in experiment [2] is recorded as “exhibited antibiofilm activity”. For the same molecule, in experiment [1], the “MIC, MHB” value was determined as 4 µM and the “MIC, TSB with 1% Glucose” value was 16 µM.

As for “IWLRLKVVLKRK-NH2 [compound 3006, QSAR–predicted antibiofilm peptide, >95% purity, C-terminally amidated]”, the “antibiofilm activity” value in experiment [2] is given as “exhibited antibiofilm activity”. In experiment [1], the “MIC, MHB” value was determined as 4 µM and the “MIC, TSB with 1% Glucose” value worked out at 32 µM.

For the molecule “KKWQLLIKWKLR [compound 11, Experimental Validation Set peptide]”, the “antibiofilm activity” value in experiment [2] was “exhibited antibiofilm activity”.

Turning to “LIVIQLLKKWWK [compound 41, Experimental Validation Set peptide]”, the “antibiofilm activity” value in experiment [2] is “exhibited antibiofilm activity”.

With “LWQLWLKLKLKG [compound 56, Experimental Validation Set peptide]”, the “antibiofilm activity” value in experiment [2] is “exhibited antibiofilm activity”.

“RRIIKILLWKLR [compound 10, Experimental Validation Set peptide]”: the “antibiofilm activity” value in experiment [2] is on record as “exhibited antibiofilm activity”.

In the case of “RRQWRGWVRIWL-NH2 [compound 3005, QSAR–predicted antibiofilm peptide, >95% purity, C-terminally amidated]”, the “antibiofilm activity” value in experiment [2] was “exhibited antibiofilm activity”. Also, in experiment [1], the “MIC, MHB” value was 4 µM and the “MIC, TSB with 1% Glucose” value worked out at 64 µM.

As for “VIKVLIKRWLKL [compound 9, Experimental Validation Set peptide]”, the “antibiofilm activity” value in experiment [2] was “exhibited antibiofilm activity”.

As to “VIKWLLKILRAI-NH2 [compound 3001, QSAR–predicted antibiofilm peptide, >95% purity, C-terminally amidated]”, the “antibiofilm activity” value in experiment [2] was “exhibited antibiofilm activity”. Further, in experiment [1], the “MIC, MHB” value amounted to 1 µM and the “MIC, TSB with 1% Glucose” value came out at 2 µM.

Consider “VLKIKVKIWVVK-NH2 [compound 3007, QSAR–predicted antibiofilm peptide, >95% purity, C-terminally amidated]”, for which, in experiment [2], the “antibiofilm activity” value is “exhibited antibiofilm activity”. Moreover, in experiment [1], the “MIC, MHB” value was determined as 16 µM and the “MIC, TSB with 1% Glucose” value is over 64 µM.

As to “VLQIKKVLRLLL [compound 17, Experimental Validation Set peptide]”, the “antibiofilm activity” value in experiment [2] is on record as “exhibited antibiofilm activity”.

With “VQWIQIVVWRKR [compound 6, Experimental Validation Set peptide]”, in experiment [2], the “antibiofilm activity” value is given as “exhibited antibiofilm activity”.

For “WIIRWIKIWLKI [compound 46, Experimental Validation Set peptide]”, in experiment [2], the “antibiofilm activity” value is “exhibited antibiofilm activity”.

For “WKKVQWLKRLLL-NH2 [compound 3003, QSAR–predicted antibiofilm peptide, >95% purity, C-terminally amidated]”, in experiment [2], the “antibiofilm activity” value is “exhibited antibiofilm activity”. Further, in experiment [1], the “MIC, MHB” value was found to be 4 µM and the “MIC, TSB with 1% Glucose” value worked out at 16 µM. Further, the residual biofilm growth in experiment [6] (>95% pure peptide, 32 μM) was ~ 40%.
